Reference: ChEMBL document CHEMBL3301361, “Experimental in vitro DMPK and physicochemical data on a set of publicly disclosed compounds”
Values after ≈ are worked out from the molar mass of the structure shown.

What was measured:
[1] = physchem
[2] = physchem; remark: listed apart in the source
[3] = in vitro; conditions: human, plasma, PPB
[4] = physchem; conditions: pH 7.4 buffer
[5] = physchem; conditions: octan-1-ol/water, pH 7.4, LogD7.4
[6] = in vitro; conditions: human

## O=C(O)COc1ccc(Cl)cc1CN1CCCN(S(=O)(=O)Cc2ccccc2)CC1
[1]
  pKa: 3.4
[2]
  pKa: 8.3
[3]
  fraction unbound at 5 h: 0.157

## O=C(Nc1ccc(N2CCOCC2)c(F)c1)c1nnc(Nc2ccccc2F)o1
[1]
  pKa: 8.61
[2]
  pKa: 6.17
[4]
  solubility thermodynamic: 1.3 µM (≈ 0.522 µg/mL)
[5]
  logD: 3.6

## COc1c(N2CCNC(C)C2)c(F)cc2c(=O)c(C(=O)O)cn(C3CC3)c12 (stereo not drawn) [GATIFLOXACIN]
[1]
  pKa: 6.05
[2]
  pKa: 9.18
[5]
  logD: -0.82

## CCCc1nc(C(C)(C)O)c(C(=O)OCc2oc(=O)oc2C)n1Cc1ccc(-c2ccccc2-c2nnn[nH]2)cc1 [OLMESARTAN MEDOXOMIL]
[1]
  pKa: 4.29
[2]
  pKa: 6.05

## Cc1c(O)nc(N)nc1-c1ccccc1
[1]
  pKa: 9.61
[2]
  pKa: 4.37

## O=C(NC[C@@H](O)CN1CCC(Oc2ccc(Cl)c(Cl)c2)CC1)c1c[nH]c(=O)cc1C(F)(F)F
[6]; liver microsomes
  microsomal CLint: 6 µL/min/mg
[1]
  pKa: 8.3
[2]
  pKa: 7.7
[5]
  logD: 2.71

## COC(=O)c1cc2nc([S+]([O-])Cc3ncccc3C)[nH]c2cc1C (stereo not drawn) [PICOPRAZOLE]
[1]
  pKa: 8.1
[2]
  pKa: 3.5

## CN1CCN(c2c(F)cc3c(=O)c(C(=O)O)cn(CCF)c3c2F)CC1 [FLEROXACIN]
[1]
  pKa: 5.6
[2]
  pKa: 7.91

## CCCN(CCC)CCc1ccc(O)c(NC(C)=O)c1
[6]; liver microsomes
  microsomal CLint: 36 µL/min/mg
[1]
  pKa: 8.75
[2]
  pKa: 10.8

## CCCN(CCC)CCc1ccc(O)c2c1CC(=O)N2 [SKF-89124A]
[1]
  pKa: 8.35
[2]
  pKa: 10.2

## CCn1cc(C(=O)O)c(=O)c2cc(F)c(N3CCNC(C)C3)c(F)c21 (stereo not drawn) [LOMEFLOXACIN]
[1]
  pKa: 5.82
[2]
  pKa: 8.87
[5]
  logD: -1.1

## CCOC(=O)[C@H](CCc1ccccc1)N[C@@H](C)C(=O)N1CCC[C@H]1C(=O)O
[1]
  pKa: 3.1
[2]
  pKa: 6.4

## CCCN(CCC)C1CCc2c(O)cccc2C1 (stereo not drawn) [5-OH-DPAT]
[1]
  pKa: 9.25
[2]
  pKa: 10.8

## O=C(NS(=O)(=O)N1CCC(N2CCC(Oc3ccc(Cl)c(Cl)c3)CC2)CC1)c1ccccc1
[1]
  pKa: 4.3
[2]
  pKa: 8.1
[5]
  logD: 2.14

## CNCCc1ccc(O)c(O)c1 [DEOXIEPINEPHRINE]
[1]
  pKa: 8.97
[2]
  pKa: 10.9

## CN(C)C1CCc2c(ccc(O)c2O)C1 (stereo not drawn)
[1]
  pKa: 8.85
[2]
  pKa: 10.5

## O=C(O)Cc1cccc(N2CCC(CN3CCC(Oc4ccc(Cl)c(Cl)c4)CC3)CC2)c1
[1]
  pKa: 4.4
[2]
  pKa: 8.9

## NCC1Cc2c1ccc(O)c2O (stereo not drawn)
[1]
  pKa: 10.4
[2]
  pKa: 8.5

## COc1c(C)c2c(c(O)c1C/C=C(\C)CCC(=O)OCCN1CCOCC1)C(=O)OC2 [MYCOPHENOLATE MOFETIL]
[1]
  pKa: 8.01
[2]
  pKa: 6.06
[4]
  solubility thermodynamic: 87.1 µM (≈ 37.8 µg/mL)
[5]
  logD: 2.26

## [O-][S+](Cc1ccccn1)c1nc2ccccc2[nH]1 (stereo not drawn) [TIMOPRAZOLE]
[1]
  pKa: 8.8
[2]
  pKa: 3.1

## NC1CCN(c2c(F)cc3c(=O)c(C(=O)O)cn(C4CC4)c3c2Cl)C1 (stereo not drawn) [CLINAFLOXACIN]
[1]
  pKa: 5.77
[2]
  pKa: 9.1

## NCC1CCC(C(=O)O)CC1 (stereo not drawn)
[1]
  pKa: 4.9
[2]
  pKa: 10

## CCn1cc(C(=O)O)c(=O)c2cc(F)c(N3CCNCC3)nc21 [ENOXACIN]
[1]
  pKa: 6.2
[2]
  pKa: 8.76
[5]
  logD: -0.83
[3]
  fraction unbound at 5 h: 0.656

## Nc1nc(-c2ccccc2)cc(=O)[nH]1
[1]
  pKa: 9.05
[2]
  pKa: 3.45

## NC1CCc2c(ccc(O)c2O)C1 (stereo not drawn)
[1]
  pKa: 8.9
[2]
  pKa: 10.5

## OCc1ccnc2c(O)cccc12
[1]
  pKa: 9.45
[2]
  pKa: 4.64

## Cc1ccc2c(c1)c(-c1ccnc3c(C(F)(F)F)cccc13)c(C)n2CC(=O)O
[1]
  pKa: 2.4
[2]
  pKa: 3.5
[5]
  logD: 1.27
[3]
  fraction unbound at 5 h: 0.0038

## Cc1cc(Cl)ccc1OC1CCN(C[C@H](O)CNC(=O)c2c[nH]c(=O)cc2C(F)(F)F)CC1
[6]; liver microsomes
  microsomal CLint: < 3 µL/min/mg
[1]
  pKa: 8.6
[2]
  pKa: 7.5
[5]
  logD: 2.37

## CCC(=O)NC(c1cccs1)c1cc(Cl)c2cccnc2c1O (stereo not drawn)
[6]; microsomes
  microsomal CLint: 21.4 µL/min/mg
[1]
  pKa: 8.19
[2]
  pKa: 2.5

## O=C(O)c1ccc(N2CCC(CN3CCC(Oc4ccc(Cl)c(Cl)c4)CC3)CC2)cc1
[1]
  pKa: 4.55
[2]
  pKa: 8.85
